The values that follow come from US9999659B2, “Treatments using a peptide and/or vaccine” (AFFIRIS AG, priority 2012, dated 2018).

The test system of assay [1] is polyclonal antibodies in mouse sera raised against original PCSK9 sequence (aa 153-162 or aa 153-165). Description: Competition ELISA: mimotope competes with the original PCSK9 sequence for binding of polyclonal antibodies in mouse sera. The settings on record: 20 μg peptide incubated with sera; irrelevant peptide = 0% competition. From the text: FIGS. 2A and 2B show the ability of PCSK9 mimotopes to compete with the original PCSK9 sequence (aa 153-162 or aa 153-165) for binding polyclonal antibodies in mouse sera raised specifically against the latter.
All mimotopes are compared to the negative group (0% competition by an irrelevant peptide). As a positive control for each competition ELISA the original PCSK9 sequences were used (aa 153-162 or aa 153-165).
The graphs display the ability (in percent) of the mimotopes to compete with the original PCSK9 sequence (aa 153-162 or aa 153-165) for binding polyclonal antibodies raised against the latter.
20 μg of each indicated peptide was incubated with sera from mice injected with original PCSK9 sequence (aa 153-162 or aa 153-165: SEQ ID No. 2). Sera were then incubated on ELISA plates coated with the original PCSK9 sequence (aa 153-162 or aa 153-165: SEQ ID No. 2). Detection was performed with anti-mouse IgG antibodies, ABTS was used as a chromogenic substrate and optical density (OD) was measured at 405 nm.
Mimotopes diminishing >20% subsequent binding of the polyclonal antibodies from the sera to the original human PCSK9 epitope (aa 153-162 or 153-165: SEQ ID No. 3) coated on the ELISA plates were considered as competing mimotopes and as good candidates.
For orientation: ELISA stands for enzyme-linked immunosorbent assay.

The test system of assay [2] is polyclonal antibodies specific for human PCSK9 aa 153-162 or aa 153-165. Kind of assay: Binding ELISA: mimotopes coated on plates, detected by mouse sera raised against the original PCSK9 sequence. The conditions noted are these: mimotope coated at 1 μmol/mL; titer = serum dilution where 50% of ODmax is reached. From the text: FIGS. 1A and 1B show detection of PCSK9 mimotopes sequences by mouse sera containing polyclonal antibodies specific for human PCSK9 aa 153-162 or aa 153-165
The graphs display median titers from all mimotopes compared to the irrelevant negative control. As a positive control the original human PCSK9 sequence is included: aa 153-162 or aa 153-165. Mimotopes with values over 1:50.000 are considered as good candidates.
Mimotopes were coated on ELISA plates at a concentration of 1 μmol/mL. After blocking unspecific binding (1% BSA in PBS) appropriate dilutions of sera from mice injected with the original human PCSK9 sequence aa 153-162 or aa 153-165 (SEQ ID No. 3) were added and incubated for approximately 1 hour. Subsequently, detection with anti-mouse IgG antibodies was performed. ABTS was used as substrate. OD measurements were performed at 405 nm and titers were defined as the dilution of the serum where 50% of the ODmax is reached.

As to “40 (SIPWNLERIQ; Artificial Sequence, Mimotope) [compound 40]”, in assay [1], the “% Competition compared to the related control group” value (“% Competition” below) was 64%. The “Median Titer Binding ELISA (ODmax/2)” value in assay [2] is given as 181,000.
Take “66 (SIPWSLERIL; Artificial Sequence, Mimotope) [compound 66]”: in assay [1], the “% Competition” value was determined as 46%. The “Median Titer Binding ELISA (ODmax/2)” value in assay [2] is listed as 199,000.
Consider “61 (SQPWNLERLT; Artificial Sequence, Mimotope) [compound 61]”, for which the “% Competition” value in assay [1] stood at 69%. Moreover, the “Median Titer Binding ELISA (ODmax/2)” value in assay [2] was 200,000.
For “41 (SIPWNLERIA; Artificial Sequence, Mimotope) [compound 41]”, in assay [1], the “% Competition” value turned out to be 80%. Moreover, in assay [2], the “Median Titer Binding ELISA (ODmax/2)” value is 189,000.
On to “13 (SIAWNLERIT; Artificial Sequence, Mimotope) [compound 13]”, for which the “% Competition” value in assay [1] came to 78%. For the same substance, in assay [2], the “Median Titer Binding ELISA (ODmax/2)” value is recorded as 147,000.
Consider “54 (VIPWNLERTT; Artificial Sequence, Mimotope) [compound 54]”, for which the “% Competition” value in assay [1] amounted to 69%. Further, in assay [2], the “Median Titer Binding ELISA (ODmax/2)” value is on record as 162,000.
For “69 (SQPWSLERTL; Artificial Sequence, Mimotope) [compound 69]” the same measures were 53% and 98,000.
Turning to “34 (SIPWNLEAIT; Artificial Sequence, Mimotope) [compound 34]”, the “% Competition” value in assay [1] amounted to 15%. In addition, the “Median Titer Binding ELISA (ODmax/2)” value in assay [2] is reported as 54,000.
Consider “48 (SIPWNLERITPNR; Artificial Sequence, Mimotope) [compound 48]”, for which the “% Competition” value in assay [1] was 70%. For the same substance, the “Median Titer Binding ELISA (ODmax/2)” value in assay [2] is given as 186,000.
Take “53 (VIPWNLERLT; Artificial Sequence, Mimotope) [compound 53]”: the “% Competition” value in assay [1] is 54%. Also, the “Median Titer Binding ELISA (ODmax/2)” value in assay [2] is given as 191,000.
As to “72 (VQPWSLERLL; Artificial Sequence, Mimotope) [compound 72]”, the “% Competition” value in assay [1] was 66%. Moreover, the “Median Titer Binding ELISA (ODmax/2)” value in assay [2] is recorded as 166,000.
As for “39 (SIPWNLERIL; Artificial Sequence, Mimotope) [compound 39]”, the “% Competition” value in assay [1] worked out at 56%. For the same substance, in assay [2], the “Median Titer Binding ELISA (ODmax/2)” value was 168,000.
Consider “59 (SVPWNLERIL; Artificial Sequence, Mimotope) [compound 59]”, for which the “% Competition” value in assay [1] is on record as 59%. In assay [2], the “Median Titer Binding ELISA (ODmax/2)” value is 188,000.
For “58 (SVPWNLERTT; Artificial Sequence, Mimotope) [compound 58]” the same measures were 73% and 116,000.
As for “33 (SIPWNLEKIT; Artificial Sequence, Mimotope) [compound 33]”, in assay [1], the “% Competition” value worked out at 19%. In assay [2], the “Median Titer Binding ELISA (ODmax/2)” value is on record as 59,000.
For the substance “70 (SVPWNLEKLT; Artificial Sequence, Mimotope) [compound 70]”, the “% Competition” value in assay [1] is on record as 11%. Also, the “Median Titer Binding ELISA (ODmax/2)” value in assay [2] is given as 47,000.
Regarding “14 (SIVWNLERITPPR; Artificial Sequence, Mimotope) [compound 14]”, in assay [1], the “% Competition” value is listed as 78%. Moreover, the “Median Titer Binding ELISA (ODmax/2)” value in assay [2] is 146,000.
For “68 (VQPWSLERTL; Artificial Sequence, Mimotope) [compound 68]”, the “% Competition” value in assay [1] stood at 48%. Also, the “Median Titer Binding ELISA (ODmax/2)” value in assay [2] is listed as 95,000.
For “32 (SIPWNLDRITPPR; Artificial Sequence, Mimotope) [compound 32]” the same measures were 53% and 151,000.
